Here are results for one compound from patent publication US11903951B2, “Nasal pharmaceutical compositions with a porous excipient” (M et P Pharma AG, priority 2016, dated 2024).

Molecules are shown by their SMILES.

Data set [1] is described as follows: Solubility of testosterone in different oils. Type of data set: physicochemical.
Data set [2] is described as follows: Time for complete dissolving of the maximally soluble amount of testosterone in different oils. Conditions: vortex mixer and shaker at 1000 rpm. How it is done: The adsorption ability of the SYLOID® particles was investigated by mixing SYLOID® 244FP, XDP3050, and XDP6035 with castor oil, linalool, TRANSCUTOL®, and CAPRYOL™. The maximally soluble amount of testosterone (under the conditions tested) was dissolved in 2.5 g of each oil using a vortex mixer and shaker at 1000 rpm.

`C[C@]12CC[C@H]3[C@@H](CCC4=CC(=O)CC[C@@]43C)[C@@H]1CC[C@@H]2O` [testosterone]: the figures for the Solubility from oil in data set [1] (CAPRYOL PGMC), in data set [1] (TRANSCUTOL HP) and in data set [1] (linalool) were 6.0%, 6.5% and 12.5%, respectively. Also, the “Time of solubility (complete dissolving)” value is over 300 min in data set [2] (0.10 g testosterone in 2.5 g castor oil), about 60 min in data set [2] (0.15 g testosterone in 2.5 g CAPRYOL), about 5 min in data set [2] (0.16 g testosterone in 2.5 g TRANSCUTOL) and 15 to 20 min in data set [2] (0.31 g testosterone in 2.5 g linalool).
